# Laboratory results reported in patent US20120172397A1, “HEXAHYDROCYCLOPENTA[f]INDAZOLE 5-YL ETHANOLS AND DERIVATIVES THEREOF AS SELECTIVE GLUCOCORTICOID RECEPTOR MODULATORS” (MERCK SHARP & DOHME CORP., priority 2009, published 2012).
# pKi: −log10 of the molar value.
# Target: T1, glucocorticoid receptor (GR) (Homo sapiens, UniProt P04150)
# T1 construct: Preparation of HeLa Cell Lysate; endogenous in cells; host or cells: HeLa (ATCC) cell lysate supernatant
# T1 sequence (P04150 1-777): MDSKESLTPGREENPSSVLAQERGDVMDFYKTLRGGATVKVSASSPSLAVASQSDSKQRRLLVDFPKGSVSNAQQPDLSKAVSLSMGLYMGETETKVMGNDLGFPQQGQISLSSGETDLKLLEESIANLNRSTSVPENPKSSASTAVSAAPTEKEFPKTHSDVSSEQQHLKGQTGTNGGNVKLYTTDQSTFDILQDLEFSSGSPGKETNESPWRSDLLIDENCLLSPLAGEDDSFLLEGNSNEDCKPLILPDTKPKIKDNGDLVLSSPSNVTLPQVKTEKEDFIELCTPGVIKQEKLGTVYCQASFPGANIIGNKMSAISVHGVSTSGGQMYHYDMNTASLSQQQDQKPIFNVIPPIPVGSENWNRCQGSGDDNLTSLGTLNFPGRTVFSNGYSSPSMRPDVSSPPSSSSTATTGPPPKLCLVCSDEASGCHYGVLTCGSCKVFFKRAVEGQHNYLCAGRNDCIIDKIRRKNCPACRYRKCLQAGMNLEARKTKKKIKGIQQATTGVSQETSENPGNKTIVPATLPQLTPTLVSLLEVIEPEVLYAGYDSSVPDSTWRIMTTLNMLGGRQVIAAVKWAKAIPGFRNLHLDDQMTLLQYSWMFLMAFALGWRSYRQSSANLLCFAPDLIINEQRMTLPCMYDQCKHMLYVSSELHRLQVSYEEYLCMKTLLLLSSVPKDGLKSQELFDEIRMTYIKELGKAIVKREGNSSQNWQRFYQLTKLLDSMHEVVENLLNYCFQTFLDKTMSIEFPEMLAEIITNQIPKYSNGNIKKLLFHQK
# Test: GR Ligand Binding Assay (BIND), 3H-dexamethasone displacement in HeLa cell lysate
# Details: 3H-DEX trace, 4° C. overnight
# Experimental: Binding Buffer: TEGM (10 mM Tris-HCl, 1 mM EDTA, 10% glycerol, 1 rnM beta-mecaptoethanol, 10 mM Sodium Molybdate, pH 7.2)
# 50% HAP Slurry: Calbiochem Hydroxylapatite, Fast Flow, in 10 mM Iris, pH 8.0 and 1 mM EDTA.
# Wash Buffer: 40 mM Tris, pH7.5, 100 mM KCl, 1 mM EDTA and 1 mM EGTA. 95% EtOH
# Dexmethasone-methyl-^3H, (DEX*); (Amersham cat# TRK645)
# Dexamethasone(DEX) (Sigma, cat# D1756):
# Cells (Hall R. E., et al., European Journal of Cancer, 30A: 484-490 (1994)) HeLa (ATCC) cultured in RPMI 1640 (Gibco 11835-055) containing 20 mM Hepes, 4 mM L-glu, 10 μg/ml of human insulin (Sigma, I-0259), 10% FBS and 20 μg/ml of Gentamicin (Gibco#15710-072) are rinsed twice in PBS. Phenol red-free Trypsin-EDTA is diluted in the same PBS 1:10. The cell layers are rinsed with 1× Trypsin, extra Trypsin is poured out, and the cell layers are incubated at 37° C. for ˜2 min. The flask is tapped and checked for signs of cell detachment. Once the cells begin to slide off the flask, the complete media is added. The cells are counted at this point, then diluted to the appropriate concentration and split into flasks or dishes for further culturing (Usually 1:3 to 1:6 dilution).
# When the cells are 70 to 85% confluent, they are detached as described above, and collected by centrifuging at 1000 g for 10 minutes at 4° C. The cell pellet is washed twice with TEGM (10 mM Tris-HCl, 1 mM EDTA, 10% glycerol, 1 mM beta-mercaptoethanol, 10 mM Sodium Molybdate, pH 7.2). After the final wash, the cells are resuspended in TEGM at a concentration of 10^7 cells/mL. The cell suspension is snap frozen in liquid nitrogen or ethanol/dry ice bath and transferred to −80° C. freezer on dry ice. Before setting up the binding assay, the frozen samples are left on ice-water to just thaw (˜1 hr). Then the samples are centrifuged at 12,500 g to 20,000 g for 30 min at 4° C. The supernatant is used to set-up assay right away. If using 50 μL of supernatant, the test compound can be prepared in 50 μL of the TEGM buffer.
# 1× TEGM buffer is prepared, and the isotope-containing assay mixture is prepared in the following order: EtOH (2% final concentration in reaction), ^3H-DEX (Amersham Biosciences) and 1× TEGM. [e.g. For 100 samples, 200 μL (100×2) of EtOH+4.25 μL of 1:10 ^3H-Dex stock+2300 μL (100×23) 1× TEGM]. The compound is serially diluted, e.g., if starting final conc. is 1 μM, and the compound is in 25 μL of solution, for duplicate samples, 75 μL of 4×1 μM solution is made and 3 μL of 100 μM is added to 72 μL of buffer, and 1:5 serial dilution.
# 25 μL of ^3H-DEX (6 nM) trace and 25 μL compound solution are first mixed together, followed by addition of 50 μL receptor solution. The reaction is gently mixed, spun briefly at about 200 rpm and incubated at 4° C. overnight. 100 μL of 50% HAP slurry is prepared and added to the incubated reaction which is then vortexed and incubated on ice for 5 to 10 minutes. The reaction mixture is vortexed twice more to resuspend HAP while incubating reaction. The samples in 96-well format are then washed in wash buffer using The FilterMate™ Universal Harvester plate washer (Packard). The washing process transfers HAP pellet containing ligand-bound expressed receptor to Unifilter-96 GF/B filter plate (Packard). The HAP pellet on the filter plate is incubated with 50 μL of MICROSCINT (Packard) scintillint for 30 minutes before being counted on the TopCount microscintillation counter (Packard). IC50s are calculated using DEX as a reference.
row,SMILES,pKi
1,"COc1ccccc1C(O)C[C@H]1CCC2=Cc3c(cnn3-c3cccnc3)C[C@@]21C (single isomer, unassigned) [Example 2a]",8.14
2,"COc1ccc(C(O)C[C@H]2CCC3=Cc4c(cnn4-c4cccnc4)C[C@@]32C)cn1 (stereo partly drawn) [Example 3, 1-(6-methoxypyridin-3-yl)-2-[(4αR,5R)-4α-methyl-1-(pyridin-3-yl)-1,4,4α,5,6,7-hexahydrocyclopenta[f]indazol-5-yl] ethanol]",8.07
3,"COc1ccccc1C(O)C[C@H]1CCC2=Cc3c(cnn3-c3cccnc3)C[C@@]21C (single isomer, unassigned) [Example 2b]",8.05
4,"COc1cccc(C(O)C[C@H]2CCC3=Cc4c(cnn4-c4cccnc4)C[C@@]32C)c1 (single isomer, unassigned) [Example 4a]",8.44
5,"C[C@]12Cc3cnn(-c4cccnc4)c3C=C1CC[C@@H]2CC(O)c1ccccc1 (single isomer, unassigned) [Example 1a]",8.46
6,"C[C@]12Cc3cnn(-c4cccnc4)c3C=C1CC[C@@H]2CC(O)c1ccccc1 (single isomer, unassigned) [Example 1b]",8.06

# Continued, values first:
row,pKi,SMILES
1,9.05,"COc1ccc(C(O)C[C@H]2CCC3=Cc4c(cnn4-c4cccnc4)C[C@@]32C)cc1 (stereo partly drawn) [Example 5, 1-(4-methoxyphenyl)-2-[(4αR,5R)-4α-methyl-1-(pyridin-3-yl)-1,4,4α,5,6,7-hexahydrocyclopenta[f]indazol-5-yl] ethanol]"
2,8.64,"CC(O)(C[C@H]1CCC2=Cc3c(cnn3-c3cccnc3)C[C@@]21C)c1ccccc1 (single isomer, unassigned) [Example 7a]"
3,8.08,"COc1cccc(C(O)C[C@H]2CCC3=Cc4c(cnn4-c4cccnc4)C[C@@]32C)c1 (single isomer, unassigned) [Example 4b]"
4,8.32,"CC(O)(C[C@H]1CCC2=Cc3c(cnn3-c3cccnc3)C[C@@]21C)c1ccccc1 (single isomer, unassigned) [Example 7b]"
5,6.82,"C[C@]12Cc3cnn(-c4cccnc4)c3C=C1CC[C@@H]2CC(O)c1ccccn1 (single isomer, unassigned) [Example 6b]"
6,6.46,"C[C@]12Cc3cnn(-c4cccnc4)c3C=C1CC[C@@H]2CC(O)c1ccccn1 (single isomer, unassigned) [Example 6a]"
